{
  "source": "ChEMBL document CHEMBL4007407",
  "about": "“Carbonic anhydrases from Trypanosoma and Leishmania as anti-protozoan drug targets” (Bioorg Med Chem, 2017)",
  "key": {"[1]": {"assay": "Inhibition of Trypanosoma cruzi SUMO-tagged glucose-6-phosphate dehydrogenase expressed in Escherichia coli BL21(DE3) using glucose-6-phosphate as substrate by diaphorase enzyme coupled fluorescence assay"}, "[2]": {"assay": "Inhibition of Leishmania major trypanothione reductase"}, "[3]": {"assay": "Inhibition of Trypanosoma cruzi hexokinase"}, "[4]": {"assay": "Inhibition of Leishmania amazonensis squalene synthase"}, "[5]": {"assay": "Mixed-type inhibition of Trypanosoma cruzi epimastigotes hexokinase using D-glucose as substrate in presence of ATP by Lineweaver-Burk Plot analysis"}, "[6]": {"assay": "Inhibition of Trypanosoma cruzi glucose-6-phosphate dehydrogenase"}, "[7]": {"tested_on": "Trypanosoma cruzi", "assay": "Antitrypanosomal activity against Trypanosoma cruzi Tulahuen amastigotes expressing beta-galactosidase gene infected in mouse NIH/3T3 cells after 4 days", "format": "functional, cell-based", "settings": "NIH3T3, 96 h"}, "[8]": {"assay": "Inhibition of Trypanosoma cruzi strain CL Brener N-terminal His6-tagged glucokinase expressed in Escherichia coli using D-glucose as substrate in presence of ATP by colorimetric assay"}, "[9]": {"assay": "Inhibition of Trypanosoma cruzi strain CL Brener N-terminal His6-tagged glucokinase expressed in Escherichia coli using D-glucose as substrate in presence of ATP by Lineweaver-Burk Plot analysis"}, "[10]": {"tested_on": "Leishmania", "assay": "Antileishmanial activity against Leishmania in visceral leishmaniasis patient assessed as cure incidents at 10 to 15 mg/kg, iv administered as single dose as lipid formulations relative to control", "format": "functional"}, "[11]": {"assay": "Inhibition of Trypanosoma cruzi N-terminal His-tagged full-length glucose-6-phosphate dehydrogenase expressed in Escherichia coli BL21(DE3) using glucose-6-phosphate as substrate in presence of NADP+ by spectrophotometric method"}, "[12]": {"tested_on": "Leishmania", "assay": "Antileishmanial activity against Leishmania in mucocutaneous leishmaniasis patient assessed as cure incidents at 4 mg/kg relative to control", "format": "functional"}},
  "data": [
    {"smiles": "C[C@]12CC[C@H](O)CC1=CC[C@@H]1[C@@H]2CC[C@]2(C)C(=O)[C@H](Br)C[C@@H]12", "values": [
      {"measurement": "IC50", "setting": "[1]", "result": 0.216, "unit": "µM"}
    ]},
    {"smiles": "O=C(CCl)N1c2ccccc2Sc2ccccc21", "values": [
      {"measurement": "IC50", "setting": "[2]", "result": 9.3, "unit": "µM"}
    ]},
    {"smiles": "CCn1c2ccccc2c2cc(NC(P(=O)(O)O)P(=O)(O)O)ccc21", "values": [
      {"measurement": "IC50", "setting": "[3]", "result": 6.4, "unit": "µM"},
      {"measurement": "Ki", "setting": "[3]", "result": 2.8, "unit": "µM"}
    ]},
    {"smiles": "COCCCOc1ccc(C#C[C@@]2(O)CN3CCC2CC3)c(Cc2ccccc2)n1", "values": [
      {"measurement": "IC50", "setting": "[4]", "result": 0.9, "unit": "µM"},
      {"measurement": "Ki", "setting": "[4]", "result": 0.0012, "unit": "µM"}
    ]},
    {"smiles": "CO[C@H]1CN(c2ccc(C#C[C@@]3(O)CN4CCC3CC4)c(Cc3ccccc3)n2)C[C@H]1O", "values": [
      {"measurement": "IC50", "setting": "[4]", "result": 6.7, "unit": "µM"},
      {"measurement": "Ki", "setting": "[4]", "result": 0.0052, "unit": "µM"}
    ]},
    {"smiles": "O=P(O)(O)C(Nc1cccc(Br)c1)P(=O)(O)O", "values": [
      {"measurement": "Ki", "setting": "[5]", "result": 1.2, "unit": "µM"}
    ]},
    {"smiles": "O=C(CCl)N1c2ccccc2Oc2ccc(Cl)cc21", "values": [
      {"measurement": "IC50", "setting": "[2]", "result": 7.6, "unit": "µM"}
    ]},
    {"smiles": "O=C(CCl)N1c2ccccc2COc2ccc(Cl)cc21", "values": [
      {"measurement": "IC50", "setting": "[2]", "result": 7.2, "unit": "µM"}
    ]},
    {"smiles": "CCCCCCCn1cnc2sc(C(N)=O)c(C)c2c1=O", "values": [
      {"measurement": "IC50", "setting": "[6]", "result": 4.9, "unit": "µM"}
    ]},
    {"smiles": "O=C(N[C@@H]1[C@@H](O)[C@H](O)[C@@H](CO)O[C@@H]1O)OCc1ccccc1", "values": [
      {"measurement": "IC50", "setting": "[7]", "result": 16.1, "unit": "µM"},
      {"measurement": "IC50", "setting": "[8]", "result": 48.7, "unit": "µM"},
      {"measurement": "Ki", "setting": "[9]", "result": 0.71, "unit": "µM"}
    ]},
    {"smiles": "Cc1ccc(Nc2ncc3c(n2)CCCC3=O)cc1", "values": [
      {"measurement": "IC50", "setting": "[6]", "result": 0.48, "unit": "µM"}
    ]},
    {"smiles": "O=C(N[C@@H]1[C@@H](O)[C@H](O)[C@@H](CO)O[C@@H]1O)c1ccccc1", "values": [
      {"measurement": "IC50", "setting": "[7]", "result": 48.7, "unit": "µM"},
      {"measurement": "IC50", "setting": "[8]", "result": 16.1, "unit": "µM"},
      {"measurement": "Ki", "setting": "[9]", "result": 32, "unit": "µM"}
    ]},
    {"smiles": "O=P(O)(O)C(O)(Cc1ccncc1)P(=O)(O)O", "values": [
      {"measurement": "Ki", "setting": "[5]", "result": 4.3, "unit": "µM"}
    ]},
    {"smiles": "C[C@]12CC[C@H](O)C[C@@H]1CC[C@@H]1[C@@H]2CC[C@]2(C)C(=O)[C@H](Br)C[C@@H]12", "note": "[16.ALPHA.-BROMOEPIANDROSTERONE]", "values": [
      {"measurement": "IC50", "setting": "[1]", "result": 0.086, "unit": "µM"}
    ]},
    {"smiles": "C[C@@H]1[C@H](O)[C@@H](C)/C=C/C=C/C=C/C=C/C=C/C=C/C=C/[C@H](O[C@@H]2O[C@H](C)[C@@H](O)[C@H](N)[C@@H]2O)C[C@@H]2O[C@](O)(C[C@@H](O)C[C@@H](O)[C@H](O)CC[C@@H](O)C[C@@H](O)CC(=O)O[C@H]1C)C[C@H](O)[C@H]2C(=O)O", "note": "[AMPHOTERICIN B]", "values": [
      {"measurement": "Activity", "setting": "[10]", "result": 93.3, "unit": "%"}
    ]},
    {"smiles": "C[C@]12CC[C@H](O)C[C@@H]1CC[C@@H]1[C@@H]2CC[C@]2(C)C(=O)CC[C@@H]12", "note": "[EPIANDROSTERONE]", "values": [
      {"measurement": "IC50", "setting": "[11]", "result": 3, "unit": "µM"},
      {"measurement": "Ki", "setting": "[11]", "result": 3.2, "unit": "µM"}
    ]},
    {"smiles": "N=C(N)c1ccc(OCCCCCOc2ccc(C(=N)N)cc2)cc1", "note": "[PENTAMIDINE]", "values": [
      {"measurement": "Activity", "setting": "[12]", "result": "90 - 95%"}
    ]}
  ]
}
